Experimental data from US6113896A, “Pharmaceutical compositions containing ecotin and homologs thereof” (priority 1994, dated 2000).
Several values for one entry are separate records, joined by “and”; a condition that tells them apart may be missing. Equal entries are not always repeated. Entries after “also recorded” stand apart in the source; their conditions may differ.

Legend:
thrombin = assay: Specificity assay, thrombin; type: biochemical, human; details: for Percent Activity of Thrombin: 100 nM inhibitor, ~1 h, 3.7 nM enzyme
Method: (§1) Specificity Assays The following assays were used to test the specificity of ecotin and the M84K and M84R mutants against various proteases. Ecotin, M84K, M84R (100 nM each), or a control blank were incubated at room temperature for ~1 h with each enzyme. The enzymes tested (enzyme concentration, buffer, substrate) were FXa (1.2 nM, Buffer A, 0.7 mM Spectrozyme fXa), thrombin (3.7 nM, Buffer A, 0.7 mM S2366), TF.cndot.FVIIa (12.0 nM, Buffer B, 0.7 mM S2366), FXIa (1.2 nM, Buffer A containing 1 mg/ml BSA, 0.7 mM S2366), activated protein C (4.3 nM, Buffer A, 0.7 mM S2366), plasmin (15 nM, Buffer A, 1 mM S2251), single chain t-PA (15 nM, Buffer A, 2.5 mM S2288), Factor XIIa (10 nM, Buffer A, 0.5 mM S2302, plasma kallikrein (10 nM, Buffer A, 0.5 mM S2302), HLE (17 nM, 0.1 M Tris, pH 7.5, 0.5 M NaCl and 0.005 % Triton X-100, 0.42 mM MeOSuc-AAPV-pNA) (SEQ ID NO:9), bovine trypsin (10 nM, Buffer A, 0.25 mM Spectrozyme fXa), and bovine chymotrypsin (10 nM, Buffer A, 1 mM Suc-AAPF-pNA) (SEQ ID NO:10). Buffer A contains 50 mM Tris, pH 7.5, 100 mM NaCl, 2 mM CaCl2 and 0.005% Triton X-100. Buffer B contains 50 mM Tris, pH 7.5, 100 mM NaCl, 10 mM CaCl2, 0.5% BSA, 60 nM TF1-243,and 1 mM CHAPS. The initial change in absorbance at 405 nm was monitored after addition of substrate. Controls lacking inhibitor and/or enzyme were also assayed to assess the uninhibited rates and the background substrate hydrolysis rates, respectively.

TF·FVIIa = assay: Specificity assay, TF·FVIIa; type: biochemical, human; details: for Percent Activity of TF/Factor VIIa: 100 nM inhibitor, ~1 h, 12.0 nM enzyme
Method: as §1

human FXIIa = assay: Equilibrium inhibition constant with Factor XIIa; type: biochemical; details: apparent value, 0.5 mM S2302
Method: (§2) Determination of Equilibrium Inhibition Constants Apparent Ki values (Ki *) for the inhibition of the enzymes tested by ecotin and mutants were measured as follows. All reactions were performed at 25° C. Stock solutions of trypsin were quantitated by active site burst titration with MUGB as previously described (Jameson, G. W. et al., Biochem. J. 131:107-117 [1973]) using a Fluoroskan II plate reader at excitation wavelength of 355 nm and emission wavelength of 460 nm. Data was collected on a Macintosh SE20 using either Delta Soft II Fl v3.31 software (BioMetallics). Active site titrated trypsin was then used to quantitate ecotin active sites using BAPA as the substrate; a stoichiometry of 1:1 was assumed (Chung, C. H. et al., supra). Factor Xa, Factor XIIa, plasma kallikrein, or HLE were then quantitated by active site titration using ecotin as a standard, again assuming 1:1 stoichiometry. In addition, the concentration of HLE was quantitated by methods previously described using a calibrated stock of α1 -proteinase inhibitor to titrate the HLE active sites (Beatty, K. et al., J. Biol. Chem. 255:3931-3934 [1980]); the same HLE active site concentration was determined using both ecotin and α1 -proteinase inhibitor. […]

human FXa = assay: Equilibrium inhibition constant with Factor Xa (tight-binding analysis); type: biochemical; details: for inhibition of FXa, in words: compared with wild type
Method: Determination of Equilibrium Inhibition Constants Apparent Ki values (Ki *) for the inhibition of the enzymes tested by ecotin and mutants were measured as follows. All reactions were performed at 25° C. Stock solutions of trypsin were quantitated by active site burst titration with MUGB as previously described (Jameson, G. W. et al., Biochem. J. 131:107-117 [1973]) using a Fluoroskan II plate reader at excitation wavelength of 355 nm and emission wavelength of 460 nm. Data was collected on a Macintosh SE20 using either Delta Soft II Fl v3.31 software (BioMetallics). Active site titrated trypsin was then used to quantitate ecotin active sites using BAPA as the substrate; a stoichiometry of 1:1 was assumed (Chung, C. H. et al., supra). Factor Xa, Factor XIIa, plasma kallikrein, or HLE were then quantitated by active site titration using ecotin as a standard, again assuming 1:1 stoichiometry. In addition, the concentration of HLE was quantitated by methods previously described using a calibrated stock of α1 -proteinase inhibitor to titrate the HLE active sites (Beatty, K. et al., J. Biol. Chem. 255:3931-3934 [1980]); the same HLE active site concentration was determined using both ecotin and α1 -proteinase inhibitor. The substate for FXa was Spectrozyme fXa (0.5 mM); the substrate for FXIIa (0.5 mM) and plasma kallikrein was S2302 (0.5 mM); the substrate for HLE was MeOSuc-Ala-Ala-Pro-Val-pNA (0.4 mM). There was good agreement upon comparison of the protein concentrations determined by amino acid analysis, Bradford analysis (Bradford, M. M. Anal. Biochem. 72:248-254 (1976) or active site titrations for trypsin, ecotin, FXa, FXIIa, plasma kallikrein, and HLE.
Therefore, apparent equilibrium dissociation values (Ki *) were determined using methods derived for tight-binding inhibitors (Morrison, J. F. Biochim. Biophys. Acta 185:269-286 [1969]), (Bieth, J. in Proteinase Inhibitors (Fritz, H., Tschesche, H., Greene, L. J. and Truscheit, E., Ed.) pp 463-469, Springer-Verlag, New York [1974]). Data were fit by nonlinear regression analysis to equation 1 and values for Ki * were determined. [formula] where α is the fractional activity (steady-state inhibited rate divided by the uninhibited rate), [Eo ] is the total enzyme concentration, and [Io ] is the total ecotin concentration. Since the inhibitor and substrate compete for the same site, the true Ki value is related to Ki^* by the expression Ki =Ki */(1+[S]/Km), where Km is the Michaelis constant for the substrate, and [S] is the substrate concentration.
a. […] Following a 1 hour incubation at room temperature to reach equilibration of the enzyme.cndot.inhibitor complex, 20 μl of 5 mM Spectrozyme fXa was added, and the steady-state rate of product formation measured by monitoring the change in absorbance at 405 nm. The Km for Spectrozyme fXa with FXa under these conditions was determined to be 0.23 mM by linear regression analysis of Lineweaver-Burke plots.

[1] = biological target: HLE (human leukocyte elastase); assay: Equilibrium inhibition constant with HLE; type: biochemical; details: apparent value, 0.08 mM MeOSuc-Ala-Ala-Pro-Val-MCA
Method: as §2

[2] = text statement, listed as ecotin

Substance | Percent Activity of Thrombin (thrombin) [%] | inhibition of thrombin, in words (thrombin; text statement) | inhibition of thrombin, in words (thrombin; [2]) | Percent Activity of TF/Factor VIIa (TF·FVIIa) [%] | inhibition of TF·FVIIa, in words (TF·FVIIa; text statement) | inhibition of TF·FVIIa, in words (TF·FVIIa; [2]) | Ki (human FXIIa) [pM] | Ki (human FXa; apparent value, 0.5 mM Spectrozyme fXa, read-out: Ki* (apparent equilibrium dissociation value) with FXa) | Ki [1] [pM] | inhibition of thrombin, in words (thrombin; listed as P1 Lys mutant) | inhibition of TF·FVIIa, in words (TF·FVIIa; listed as P1 Lys mutant) | inhibition of FXa, in words (human FXa) | inhibition of thrombin, in words (thrombin; listed as P1 Arg mutant) | inhibition of TF·FVIIa, in words (TF·FVIIa; listed as P1 Arg mutant)
Ecotin: E. coli periplasmic protein having the 142 amino acid residue sequence reported by McGrath et al.; recombinant, P1 Met84 | 98 | did not effectively inhibit | little or no inhibition | 99 | did not effectively inhibit | little or no inhibition; also recorded: No inhibition; also recorded: does not inhibit | 124 ± 26 | 54 pM and 47 pM | 50 | – | – | – | – | –
M84K | 16 | significant inhibition | – | 92 | Neither ecotin, the M84R or M84K mutants inhibited | – | – | – | – | significantly inhibited | did not inhibit | slightly more potent as FXa inhibitors; also recorded: slightly more potent than the wild type inhibitor | – | –
M84R | 4 | significant inhibition | – | 87 | Neither ecotin, the M84R or M84K mutants inhibited | – | – | – | – | – | – | slightly more potent as FXa inhibitors; also recorded: slightly more potent than the wild type inhibitor | significantly inhibited | did not inhibit
